# From publication PMC9571594, “Development of Semisynthetic Apoptosis-Inducing Agents Based on Natural Phenolic Acids Scaffold: Design, Synthesis and In-Vitro Biological Evaluation” (Molecules, 2022)
# Several values for one entry are separate records, joined by “and”; a condition that tells them apart may be missing. Equal values may be shown once. Read-outs that look alike come from different tables or passages of the source.
# How the values were obtained:
# [1] = system: Caco-2 cells; assay: Cell-cycle analysis by flow cytometry; type: cell-based; details: Caco-2 cells; for %G0–G1 / %G2/M / %S: cell-cycle distribution after treatment; for %Pre-G1: Pre-G1 = apoptotic population
# Experimental: The potential candidates with anti-tumor effect on the Caco-2 cell line along with a high SI were chosen for cell-cycle analysis. The cell-cycle distribution and cell death were analyzed using Annexin V-FITC/PI staining and flow cytometry (Table 4, Figure 4).
# In order to determine the percentage of viable, apoptotic and necrotic cells after treatment with our compounds, double-staining with fluorescein isothiocyanate (FITC) and PI was performed. Annexin V-FITC Apoptosis Detection Kit (BioVision, CA, USA) was used. Briefly, cultured Caco-2 were treated with the tested compounds or DMSO for 24h. Cells were then collected by centrifugation at 2000 rpm for 5 min, and the pellet was washed with PBS then centrifuged again at 2000 rpm for 5 min then resuspended in 500μL of the kit’s binding buffer before adding the Annexin V-FITC and PI. The cells were then incubated at room temperature in the dark for 5 min. […]
# Assay : Cell Cycle Analysis
# Kit used : ab139418_Propidium Iodide Flow Cytometry Kit/BD
# Assay samples :Cell culture
# Cpd. No. Cpd. No. Cpd. No. Cpd. No.
# [2] = system: MCF-7 cells; assay: MTT cell viability assay, MCF-7; type: cell-based, Human
# Experimental: MCF-7 cells (Human breast adenocarcinoma), HepG2 (human hepatocellular carcinoma), A549 (human lung adenocarcinoma), Caco-2 (colon carcinoma), PANC-1 (human pancreatic cancer), and Vero cells (derived from normal kidney cells) were supplied by (Holding Company for Biological Products and Vaccines VACSERA; Giza, Egypt). The cells were cultured in PRMI 1640 medium (Lonza, Switzerland) supplemented with 10% fetal bovine serum (Gibco), 1% penicillin and 1% streptomycin (Sigma Aldrich, Saint Louis, MO, USA) at 37 °C under an atmosphere of 5% CO2 and 95% air.
# The effect of parent compounds and their derivatives were assessed by (3-(4,5-dimethylthiazol-2-yl)-2,5diphenyl-tetrazolium bromide) MTT assay. […] After a merged sheet of cells developed, the growth media was decanted from the 96-well microtiter and refilled with different concentrations of compounds (µg/mL), and the plate was incubated at 37 °C for 48 h to minimize exposure to the dissolving agent (Supporting Information).
# MTT solution (BIO BASIC CANADA INC) was prepared [5 mg/mL in phosphate buffered saline (PBS)], added to each well and incubated for 4 h, then after removing the media, 200 μL of DMSO was added to each well to solubilize the formazan crystals and the optical density of the formazan product was measured at 560 nm using microplate reader (mindray, MR-96A). The results were calculated as the mean of the three independent experiments. […]
# Determination of sample cytotoxicity on cells (MTT protocol) […]
# well) and incubated at 37°C for 24 hours to develop a complete monolayer sheet.
# 2- Growth medium was decanted from 96 well micro titer plates after confluent sheet of cells were formed, cell monolayer was washed twice with wash media.
# 3- two-fold dilutions of tested sample was made in RPMI medium with 2% serum […]
# 4- 0.1 ml of each dilution was tested in different wells leaving 3 wells as control, receiving only maintenance medium.
# 5- Plate was incubated at 37°C and examined. Cells were checked for any physical signs of toxicity, e.g. partial or complete loss of the monolayer, rounding, shrinkage, […]
# 6- MTT solution was prepared (5mg/ml in PBS) (BIO BASIC CANADA INC).
# 8- 20ul MTT solution were added to each well. Place on a shaking table, 150rpm for 5 minutes, to thoroughly mix the MTT into the media.
# 10) Dump off the media. (dry plate on paper towels to remove residue if necessary. […] 9 ش - ايلعلا هبضهلا - مطقملا / ىسيئرلا لمعملا […]
# [3] = Homo sapiens, MCF7, MTT, 48 h, average of triplicates, read-out: IC50 (μM) ± SD MCF-7
compound,measurement,setting,value
"O=C(O)/C=C/c1ccc(O)c(O)c1 [Compound 1, Caffeic acid]",%G0–G1,[1],46.29 ± 3.1%
same,%G2/M,[1],20.49 ± 1.92%
same,%S,[1],33.22 ± 1.99%
same,%G0–G1,[1]; listed as s1,46.29%
same,%G2/M,[1]; listed as s1,20.49%
same,%S,[1]; listed as s1,33.22%
same,%Pre-G1,[1],11.31 ± 0.81%
same,%Pre-G1,[1]; listed as caffeic acid,11.31%
same,IC50,[2]; [3],970 µM
"COc1cc(/C=C/C(=O)O)ccc1O [Compound 2, Ferulic acid]",%Pre-G1,[1],13.22% and 13.22 ± 0.63%
same,IC50,[2]; [3],1120 µM
same,viability at 15.625 µg/mL,"[2]; Homo sapiens, Mcf7, 15.625 ug/ml",98.7%
same,viability at 31.25 µg/mL,"[2]; Homo sapiens, Mcf7, 31.25 ug/ml",99.4%
same,viability at 62.5 µg/mL,"[2]; Homo sapiens, Mcf7, 62.5 ug/ml",99.2%
same,viability at 125 µg/mL,"[2]; Homo sapiens, Mcf7, 125 ug/ml",84.9%
same,viability at 250 µg/mL,"[2]; Homo sapiens, Mcf7, 250 ug/ml",29.4%
same,viability at 500 µg/mL,"[2]; Homo sapiens, Mcf7, 500 ug/ml",11.7%
same,IC50,"[2]; Homo sapiens, Mcf7, MTT report T-4-019-5, Conc. ug/ml, read-out: IC50",203 µg/mL
same,Toxicity %,"[2]; Mcf7, 15.625 ug/ml",1.286%
same,Toxicity %,"[2]; Mcf7, 31.25 ug/ml",0.6431%
same,Toxicity %,"[2]; Mcf7, 62.5 ug/ml",0.7503%
same,Toxicity %,"[2]; Mcf7, 125 ug/ml",15.11%
same,Toxicity %,"[2]; Mcf7, 250 ug/ml",70.63%
same,Toxicity %,"[2]; Mcf7, 500 ug/ml",88.32%
